Results reported in the supplement of paper PMC10883282.

Assays:
Test in all cases: relative viability vs DMSO control (72 h) (fraction); higher = more viable cells
SYO-1 = tested on: SYO-1
In short: (§1)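 Sarcoma cell lines were plated in 384 wells to reach 80–90% confluence, treated after 24 h with 2.5 µl of serially diluted compound and held 72 h at 37 °C, 5% CO2. Relative viability was taken as percent growth from ATPLite readings, averaged over up to triplicate wells. The values were rescaled so that 1 marks full and 0 marks none.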

RD = tested on: RD
In short: as §1

SW684 = tested on: SW684
In short: as §1

SW872 = tested on: SW872
In short: as §1

HS729 = tested on: HS729
In short: as §1

SW1353 = tested on: SW1353
In short: as §1

KHOS-NP = tested on: KHOS-NP
In short: as §1

G401 = tested on: G401
In short: as §1

HT1080 = tested on: HT1080
In short: as §1

RD-ES = tested on: RD-ES
In short: as §1

SK-LMS-1 = tested on: SK-LMS-1
In short: as §1

KHOS-240S = tested on: KHOS-240S
In short: as §1

CCN(CCCOc1ccc2c(Nc3cc(CC(=O)Nc4cccc(F)c4)[nH]n3)ncnc2c1)CCOP(=O)(O)O [Barasertib]
Conditions | relative viability
G401, 0.00017 µM | 0.961
G401, 0.00051 µM | 0.998
G401, 0.00152 µM | 0.996
G401, 0.00457 µM | 0.97
G401, 0.01372 µM | 0.897
G401, 0.04115 µM | 0.798
G401, 0.1235 µM | 0.777
G401, 0.3704 µM | 0.8003
G401, 1.111 µM | 0.799
G401, 3.333 µM | 0.776
G401, 10 µM | 0.677
HS729, 0.00017 µM | 0.957
HS729, 0.00051 µM | 0.934
HS729, 0.00152 µM | 0.947
HS729, 0.00457 µM | 0.936
HS729, 0.01372 µM | 0.901
HS729, 0.04115 µM | 0.934
HS729, 0.1235 µM | 0.877
HS729, 0.3704 µM | 0.801
HS729, 1.111 µM | 0.8
HS729, 3.333 µM | 0.815
HS729, 10 µM | 0.804
HT1080, 0.00017 µM | 1.05
HT1080, 0.00051 µM | 1.04
HT1080, 0.00152 µM | 1.04
HT1080, 0.00457 µM | 1.04
HT1080, 0.01372 µM | 1.02
HT1080, 0.04115 µM | 0.977
HT1080, 0.1235 µM | 0.878
HT1080, 0.3704 µM | 0.89
HT1080, 1.111 µM | 0.9017
HT1080, 3.333 µM | 0.895
HT1080, 10 µM | 0.87
KHOS-240S, 0.00017 µM | 1.04
KHOS-240S, 0.00051 µM | 1.02
KHOS-240S, 0.00152 µM | 1.03
KHOS-240S, 0.00457 µM | 1
KHOS-240S, 0.01372 µM | 0.978
KHOS-240S, 0.04115 µM | 0.9
KHOS-240S, 0.1235 µM | 0.794
KHOS-240S, 0.3704 µM | 0.759
KHOS-240S, 1.111 µM | 0.744
KHOS-240S, 3.333 µM | 0.736
KHOS-240S, 10 µM | 0.712
KHOS-NP, 0.00017 µM | 1.03
KHOS-NP, 0.00051 µM | 1.03
KHOS-NP, 0.00152 µM | 1.04
KHOS-NP, 0.00457 µM | 1.048
KHOS-NP, 0.01372 µM | 1.05
KHOS-NP, 0.04115 µM | 1.072
KHOS-NP, 0.1235 µM | 1.08
KHOS-NP, 0.3704 µM | 1.09
KHOS-NP, 1.111 µM | 1.11
KHOS-NP, 3.333 µM | 1.12
KHOS-NP, 10 µM | 1.13
RD, 0.00017 µM | 1.09
RD, 0.00051 µM | 1.09
RD, 0.00152 µM | 1.1
RD, 0.00457 µM | 1.06
RD, 0.01372 µM | 0.943
RD, 0.04115 µM | 0.888
RD, 0.1235 µM | 0.869
RD, 0.3704 µM | 0.84
RD, 1.111 µM | 0.803
RD, 3.333 µM | 0.759
RD, 10 µM | 0.681
RD-ES, 0.00017 µM | 0.994
RD-ES, 0.00051 µM | 0.974
RD-ES, 0.00152 µM | 0.984
RD-ES, 0.00457 µM | 0.951
RD-ES, 0.01372 µM | 0.746
RD-ES, 0.04115 µM | 0.156
RD-ES, 0.1235 µM | 0.143
RD-ES, 0.3704 µM | 0.14
RD-ES, 1.111 µM | 0.131
RD-ES, 3.333 µM | 0.117
RD-ES, 10 µM | 0.127
SK-LMS-1, 0.00017 µM | 1.02
SK-LMS-1, 0.00051 µM | 1.02
SK-LMS-1, 0.00152 µM | 1.03
SK-LMS-1, 0.00457 µM | 1
SK-LMS-1, 0.01372 µM | 1.06
SK-LMS-1, 0.04115 µM | 1.01
SK-LMS-1, 0.1235 µM | 0.917
SK-LMS-1, 0.3704 µM | 0.855
SK-LMS-1, 1.111 µM | 0.904
SK-LMS-1, 3.333 µM | 0.887
SK-LMS-1, 10 µM | 0.867
SW684, 0.00017 µM | 1.11
SW684, 0.00051 µM | 1.11
SW684, 0.00152 µM | 1.15
SW684, 0.00457 µM | 1.15
SW684, 0.01372 µM | 1.12
SW684, 0.04115 µM | 1.04
SW684, 0.1235 µM | 1.06
SW684, 0.3704 µM | 1.11
SW684, 1.111 µM | 1.08
SW684, 3.333 µM | 0.977
SW684, 10 µM | 0.816
SW872, 0.00017 µM | 1.01
SW872, 0.00051 µM | 1.01
SW872, 0.00152 µM | 0.9782
SW872, 0.00457 µM | 0.985
SW872, 0.01372 µM | 0.975
SW872, 0.04115 µM | 0.962
SW872, 0.1235 µM | 0.897
SW872, 0.3704 µM | 0.918
SW872, 1.111 µM | 0.912
SW872, 3.333 µM | 0.892
SW872, 10 µM | 0.8645
SW1353, 0.00017 µM | 0.955
SW1353, 0.00051 µM | 0.972
SW1353, 0.00152 µM | 0.939
SW1353, 0.00457 µM | 0.985
SW1353, 0.01372 µM | 0.867
SW1353, 0.04115 µM | 0.841
SW1353, 0.1235 µM | 0.842
SW1353, 0.3704 µM | 0.812
SW1353, 1.111 µM | 0.823
SW1353, 3.333 µM | 0.82
SW1353, 10 µM | 0.8463
SYO-1, 0.00017 µM | 0.939
SYO-1, 0.00051 µM | 0.918
SYO-1, 0.00152 µM | 0.891
SYO-1, 0.00457 µM | 0.82
SYO-1, 0.01372 µM | 0.479
SYO-1, 0.04115 µM | 0.415
SYO-1, 0.1235 µM | 0.397
SYO-1, 0.3704 µM | 0.337
SYO-1, 1.111 µM | 0.319
SYO-1, 3.333 µM | 0.284
SYO-1, 10 µM | 0.251
